Read-outs that look alike come from different tables or passages of the source.
Assay: Lapatinib pharmacokinetics in rat blood plasma (BP), HPLC-MS/MS, noncompartmental analysis
Type: in vivo, rats
Conditions: for MRT last: read-out: MRT0-t
Procedure: This study was conducted on rats, which are a promising model to predict P-gp-based drug-drug interactions at the human BBB [15]. The animals were allowed to acclimate for one week before the beginning of the experiments. Adult male Wistar-strain rats (weight 470–525 g) were used in the study. The animals were maintained under standard breeding conditions with a 12/12 h light-dark cycle (lights on at 6.00 a.m., lights off at 6.00 p.m.) at constant room temperature (23 ± 2 °C), relative humidity (55 ± 10%) and ad libitum access to food and water. The experimental protocol for this study was reviewed and approved by the Local Ethics Committee. To obtain consistent data, the study was based on the required minimum number of animals and observation time. […] Three rats were used at each time point (n = 3). In total, the research was conducted on 66 animals (n = 33 in the experimental group and n = 33 in the control group).
Elacridar was freshly dissolved in a vehicle at an initial concentration of 20 mg/mL. […] A volume of 80 μL of blood was collected from each rat by cutting off a piece of its tail. The blood samples were collected into heparinized test tubes at the following time points: […], and they were immediately centrifuged at 2880 g for 10 min at 4 °C. The anaesthetized rats (anaesthetized by intramuscular administration of 50 mg/kg ketamine and 10 mg/kg xylazine) were prepared for cisterna magna puncture. The hair over the puncture was removed and the skin was disinfected with alcohol. The animals were placed in a recumbent position with an elevated rear part of the body. The animals’ heads were slightly flexed and immobilized with the operator’s left hand. The space between the occiput rostrally and the atlas (C1) of the spinal column caudally was gently palpated with the left thumb. A 0.7 × 20 G needle with polyethylene tubing (Terumo Poland, Warsaw, Poland) was gently inserted at an approximate angle of 80–90° through the skin with the operator’s right hand into the midsagittal region. The moment that dura mater perforation was perceptible, a small amount of CSF was found in the needle tubing. To sample additional CSF, a 1 mL insulin syringe (Becton Dickinson, Warsaw, Poland) was used to collect 80–120 μL of CSF by very gentle aspiration. Only clear CSF was collected for further analysis. […] The animals’ brains were immediately dissected, washed in 0.9% NaCl and divided along the longitudinal axis. One of the brain hemispheres was again rinsed three times with 5 mL of 0.9% NaCl, weighed and homogenized with 0.9% NaCl (4 mL per 1 g of BT) in an Ultra-Turrax homogenizer (Witko, Łódź, Poland). The homogenate was then centrifuged at 4500 g for 10 min. All samples of the rat BP, CSF, and BT homogenate supernatant were stored at −80 °C until analysis.
The chromatographic analysis was conducted using a 1260 Infinity system (Agilent Technologies, Santa Clara, USA) equipped with a Kinetex® C18 column (50 × 4.6 mm, 2.6 μm, Phenomenex, Torrance, USA), which was maintained at 35 °C. The mobile phase consisted of 0.1% formic acid (v/v) in water with 5 mM ammonium formate (solvent A) and acetonitrile with 10% phase A (v/v, solvent B). The analyte and internal standard (IS, erlotinib) were eluted using a gradient run of 10 min as follows: 95% A at 0–2 min; 95%–5% A at 2–4 min; 5% A at 4–5 min; 5%–95% A at 5–6 min; 95% A at 6–10 min. The flow rate and injection volume were set at 0.7 mL/min and 10 μL, respectively. The needle was washed for 30 s in a mixture of acetonitrile, methanol, isopropanol, water, and formic acid (50:20:15:15:0.25, v/v/v/v/v).

[1] = blood plasma, lapatinib 100 mg/kg oral + 5 mg/kg elacridar (IE+L)
[2] = male, Wistar, rat, plasma, oral, lapatinib 100 mg/kg + elacridar, read-out: Clapatinib in BP, S
[3] = male, Wistar, rat, plasma, oral, lapatinib 100 mg/kg + elacridar, read-out: Clapatinib in BP, single rat
[4] = male, Wistar, rat, plasma, po, 100 mg/kg, blood plasma, lapatinib 100 mg/kg oral + 5 mg/kg elacridar (IE+L)
[5] = male, Wistar, rat, plasma, po, 100 mg/kg, blood plasma, lapatinib 100 mg/kg oral alone (IIL)
[6] = male, Wistar, rat, plasma, po, 100 mg/kg, lapatinib p.o. 100 mg/kg alone, read-out: Clapatinib in BP, S (medium value)
[7] = male, Wistar, rat, plasma, po, 100 mg/kg, lapatinib p.o. 100 mg/kg alone, read-out: Clapatinib in BP, single rat

plasma AUC0-t higher in IE+L than in IIL (BP, IE+L vs IIL group): 78.7%
plasma AUC0-∞ higher in IE+L than in IIL (BP, IE+L vs IIL group): 155.6%
plasma Cmax greater in IE+L than in IIL (BP, IE+L vs IIL group): 6.3%
t0.5 prolongation when coadministered with elacridar (BP, IE+L vs IIL group): 5.2 fold
Tmax [1]: 2.50 ± 0.71 h
t0.5 [1]: 28.77 ± 6.00 h
concentration of lapatinib after 24 h (each matrix sample (BP, CSF, BT), IIL group): undetectable
concentration at 0.25 h [2]: 780 ng/mL
concentration at 0.25 h [3]: 700 ng/mL
concentration at 0.5 h [2]: 1520 ng/mL
concentration at 0.5 h [3]: 1680 ng/mL
concentration at 1 h [2]: 1980 ng/mL
concentration at 1 h [3]: 2050 ng/mL
concentration at 2 h [2]: 3070 ng/mL
concentration at 2 h [3]: 2100 ng/mL
concentration at 3 h [2]: 2460 ng/mL
concentration at 3 h [3]: 2040 ng/mL
concentration at 4 h [2]: 1310 ng/mL
concentration at 4 h [3]: 1580 ng/mL
concentration at 6 h [2]: 1340 ng/mL
concentration at 6 h [3]: 1360 ng/mL
concentration at 8 h [2]: 1780 ng/mL
concentration at 12 h [2]: 2300 ng/mL
concentration at 12 h [3]: 2280 ng/mL
concentration at 24 h [2]: 1230 ng/mL
concentration at 24 h [3]: 1300 ng/mL
Cmax (male, Wistar, rat, plasma, po, 100 mg/kg): 3260 ± 810 ng/mL
AUC(0-inf) [4]: 95100 ng·h/mL
AUC(0-t) [4]: 43600 ng·h/mL
k el [4]: 5.56e-06 s⁻¹
MRT last [4]: 11.1 ± 0.5 h
AUC(0-inf) [5]: 37200 ng·h/mL
AUC(0-t) [5]: 24400 ng·h/mL
k el [5]: 3.61e-05 s⁻¹
MRT last [5]: 5.7 ± 0.43 h
concentration at 0.25 h [6]: 650 ng/mL
concentration at 0.25 h [7]: 530 ng/mL
concentration at 0.5 h [6]: 1330 ng/mL
concentration at 0.5 h [7]: 1210 ng/mL
concentration at 1 h [6]: 2050 ng/mL
concentration at 1 h [7]: 1830 ng/mL
concentration at 2 h [6]: 2210 ng/mL
concentration at 2 h [7]: 1950 ng/mL
concentration at 3 h [6]: 2380 ng/mL
concentration at 4 h [6]: 3260 ng/mL
concentration at 4 h [7]: 3830 ng/mL
concentration at 6 h [6]: 1940 ng/mL
concentration at 6 h [7]: 1560 ng/mL
concentration at 8 h [6]: 1940 ng/mL
concentration at 8 h [7]: 2130 ng/mL
concentration at 12 h [6]: 1500 ng/mL
Tmax (male, Wistar, rat, plasma, po, 100 mg/kg, read-out: tmax): 4 h
SMILES: CS(=O)(=O)CCNCc1ccc(-c2ccc3ncnc(Nc4ccc(OCc5cccc(F)c5)c(Cl)c4)c3c2)o1 [lapatinib, N-{3-Chloro-4-[(3-fluorobenzyl)oxy]phenyl}-6-[5-({[2-(methylsulfonyl)ethyl]amino}methyl)-2-furyl]-4-quinazolinamine]
